Test results taken from US20260234115A1, “LIPID COMPOUNDS, COMPOSITIONS, AND USES THEREOF” (Liberate Bio, Inc., priority 2023, published 2026).
Marks after values point to notes of the source that are not given here.

Test system: mouse organs
Test: In vivo activity screening in mice: organ mean total flux (p/s) of luciferase activity after injection of F2 LNP pools (Table 6, FIG. 7A-7C)
Details: luciferase mRNA
Method in brief: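 Luciferase output per organ is reported as mean total flux (p/s) from IVIS regions of interest. Organs were collected from perfused C57BL/6J mice and imaged 10-15 min after s.c. D-luciferin, 4-6 h after i.v. dosing. Dosing was 0.25-3 mg/kg luciferase mRNA in F2 LNP pools.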

CCCCCCC(CCC(=O)OCC(COC(=O)CCCCC(=O)OCCC(CCCC)CCCCC)(COC(=O)CCCCC(=O)OCCC(CCCCC)CCCCC)COC(=O)CCCCC(=O)OCCC(CCCCC)CCCCC)OC(=O)NCCN1CCCC1 (stereo not drawn) [Compound 53]
Organ Mean Total Flux Femur (Mouse 3, dose 1.0 mg/kg): 2.5 p/s (×10^6)
Organ Mean Total Flux Heart (Mouse 3, dose 1.0 mg/kg): 2.1 p/s (×10^6)
Organ Mean Total Flux Kidney (Mouse 3, dose 1.0 mg/kg): 2.2 p/s (×10^6)
Organ Mean Total Flux Liver (Mouse 3, dose 1.0 mg/kg): 1286 p/s (×10^6)
Organ Mean Total Flux Lung (Mouse 3, dose 1.0 mg/kg): 12.1 p/s (×10^6)
Organ Mean Total Flux Muscle (Mouse 3, dose 1.0 mg/kg): 5.5 p/s (×10^6)
Organ Mean Total Flux Pancreas (Mouse 3, dose 1.0 mg/kg): 2.3 p/s (×10^6)
Organ Mean Total Flux Spleen (Mouse 3, dose 1.0 mg/kg): 9.3 p/s (×10^6)

CCCCCCC(CCC(=O)OCC(COC(=O)CCCCCOC(=O)C(CCCC)CCCCCC)(COC(=O)CCCCCOC(=O)C(CCCC)CCCCCC)COC(=O)CCCCCOC(=O)C(CCCC)CCCCCC)OC(=O)NCCN1CCCC1 (stereo not drawn) [Compound 55, [6-[2,2-bis[6-(2-butyloctanoyloxy)hexanoyloxymethyl]-3-[4-(2-pyrrolidin-1ylethylcarbamoyloxy)decanoyloxy]propoxy]-6-oxo-hexyl]2-butyloctanoate]
Organ Mean Total Flux Femur (Mouse 3, dose 1.0 mg/kg): 6.1 p/s (×10^6)
Organ Mean Total Flux Heart (Mouse 3, dose 1.0 mg/kg): 4.4 p/s (×10^6)
Organ Mean Total Flux Kidney (Mouse 3, dose 1.0 mg/kg): 2.4 p/s (×10^6)
Organ Mean Total Flux Liver (Mouse 3, dose 1.0 mg/kg): 4527 p/s (×10^6)
Organ Mean Total Flux Lung (Mouse 3, dose 1.0 mg/kg): 19.9 p/s (×10^6)
Organ Mean Total Flux Muscle (Mouse 3, dose 1.0 mg/kg): 17.4 p/s (×10^6)
Organ Mean Total Flux Pancreas (Mouse 3, dose 1.0 mg/kg): 2.6 p/s (×10^6)
Organ Mean Total Flux Spleen (Mouse 3, dose 1.0 mg/kg): 6.2 p/s (×10^6)

CCCCCCC(CCC(=O)OCC(COC(=O)CCCCOC(=O)C(CCCC)CCCCCC)(COC(=O)CCCCOC(=O)C(CCCC)CCCCCC)COC(=O)CCCCOC(=O)C(CCCC)CCCCCC)OC(=O)NCCN1CCCC1 (stereo not drawn) [Compound 56, [5-[2,2-bis[5-(2-butyloctanoyloxy)pentanoyloxymethyl]-3-[4-(2-pyrrolidin-1-ylethylcarbamoyloxy)decanoyloxy]propoxy]-5-oxo-pentyl]2-butyloctanoate]
Organ Mean Total Flux Femur (Mouse 3, dose 1.0 mg/kg): 6.4 p/s (×10^6)
Organ Mean Total Flux Heart (Mouse 3, dose 1.0 mg/kg): 17.7 p/s (×10^6)
Organ Mean Total Flux Kidney (Mouse 3, dose 1.0 mg/kg): 9.4 p/s (×10^6)
Organ Mean Total Flux Liver (Mouse 3, dose 1.0 mg/kg): 15800 p/s (×10^6)
Organ Mean Total Flux Lung (Mouse 3, dose 1.0 mg/kg): 66.6 p/s (×10^6)
Organ Mean Total Flux Muscle (Mouse 3, dose 1.0 mg/kg): 19.7 p/s (×10^6)
Organ Mean Total Flux Pancreas (Mouse 3, dose 1.0 mg/kg): 3.4 p/s (×10^6)
Organ Mean Total Flux Spleen (Mouse 3, dose 1.0 mg/kg): 13.0 p/s (×10^6)

CCCCCCC(CCC(=O)OCC(COC(=O)CCCCCCOC(=O)C(CCCC)CCCCCC)(COC(=O)CCCCCCOC(=O)C(CCCC)CCCCCC)COC(=O)CC12CC3CC(CC(C3)C1)C2)OC(=O)NCCN1CCCC1 (stereo not drawn) [Compound 57, [7-[2-[[2-(1-adamantyl)acetyl]oxymethyl]-2-[7-(2-butyloctanoyloxy)heptanoyloxymethyl]-3-[4-(2-pyrrolidin-1-ylethylcarbamoyloxy)decanoyloxy]propoxy]-7-oxo-heptyl]2-butyloctanoate]
Organ Mean Total Flux Femur (Mouse 3, dose 1.0 mg/kg): 7.4 p/s (×10^6)
Organ Mean Total Flux Heart (Mouse 3, dose 1.0 mg/kg): 16.1 p/s (×10^6)
Organ Mean Total Flux Kidney (Mouse 3, dose 1.0 mg/kg): 11.4 p/s (×10^6)
Organ Mean Total Flux Liver (Mouse 3, dose 1.0 mg/kg): 25033 p/s (×10^6)
Organ Mean Total Flux Lung (Mouse 3, dose 1.0 mg/kg): 71.8 p/s (×10^6)
Organ Mean Total Flux Muscle (Mouse 3, dose 1.0 mg/kg): 16.4 p/s (×10^6)
Organ Mean Total Flux Pancreas (Mouse 3, dose 1.0 mg/kg): 2.7 p/s (×10^6)
Organ Mean Total Flux Spleen (Mouse 3, dose 1.0 mg/kg): 6.5 p/s (×10^6)

CCCCC/C=C\CCOC(=O)CCCCC(=O)OCC(COC(=O)CCCCC(=O)OCC/C=C\CCCCC)(COC(=O)CCC(CCCCCC)OC(=O)NCCN1CCCC1)COC(=O)C12CCC(CC1)CC2 (stereo not drawn) [Compound 67, O6-[2-(bicyclo[2.2.2]octane-1-carbonyloxymethyl)-2-[[6-[(Z)-non-3-enoxy]-6-oxo-hexanoyl]-oxymethyl]-3-[4-(2-pyrrolidin-1-ylethylcarbamoyloxy)decanoyloxy]propyl]O1-[(Z)-non-3-enyl]hexanedioate]
Organ Mean Total Flux Femur (Mouse 12, dose 0.5 mg/kg): 10.8 p/s (×10^6)
Organ Mean Total Flux Heart (Mouse 12, dose 0.5 mg/kg): 0.4 p/s (×10^6)
Organ Mean Total Flux Kidney (Mouse 12, dose 0.5 mg/kg): 1.9 p/s (×10^6)
Organ Mean Total Flux Liver (Mouse 12, dose 0.5 mg/kg): 220.0 p/s (×10^6)
Organ Mean Total Flux Lung (Mouse 12, dose 0.5 mg/kg): 11.8 p/s (×10^6)
Organ Mean Total Flux Muscle (Mouse 12, dose 0.5 mg/kg): 22.8 p/s (×10^6)
Organ Mean Total Flux Pancreas (Mouse 12, dose 0.5 mg/kg): 10.4 p/s (×10^6)
Organ Mean Total Flux Spleen (Mouse 12, dose 0.5 mg/kg): 50.1 p/s (×10^6)

CCCC/C=C\CCOC(=O)CCCCCCCC(=O)OCC(COC(=O)CCCCCCCC(=O)OCC/C=C\CCCC)(COC(=O)CCCCCCCC(=O)OCC/C=C\CCCC)COC(=O)CCC(CCCCCC)OC(=O)NCCN1CCCC1 (stereo not drawn) [Compound 21, O9-[2,2-bis[[9-[(Z)-oct-3-enoxy]-9-oxo-nonanoyl]oxymethyl]-3-[4-(2-pyrrolidin-1ylethylcarbamoyloxy)decanoyloxy]propyl]O1-[(Z)-oct-3-enyl]nonanedioate]
Organ Mean Total Flux Femur (Mouse 11, dose 0.5 mg/kg): 2.0 p/s (×10^6)
Organ Mean Total Flux Heart (Mouse 11, dose 0.5 mg/kg): 0.8 p/s (×10^6)
Organ Mean Total Flux Kidney (Mouse 11, dose 0.5 mg/kg): 0.7 p/s (×10^6)
Organ Mean Total Flux Liver (Mouse 11, dose 0.5 mg/kg): 818.7 p/s (×10^6)
Organ Mean Total Flux Lung (Mouse 11, dose 0.5 mg/kg): 6.6 p/s (×10^6)
Organ Mean Total Flux Muscle (Mouse 11, dose 0.5 mg/kg): 4.1 p/s (×10^6)
Organ Mean Total Flux Pancreas (Mouse 11, dose 0.5 mg/kg): 2.8 p/s (×10^6)
Organ Mean Total Flux Spleen (Mouse 11, dose 0.5 mg/kg): 2.0 p/s (×10^6)

CCCCCCCCOC(=O)CCCCCC(=O)OCC(COC(=O)CCCCCC(=O)OCCCCCCCC)(COC(=O)CCCCCC(=O)OCCCCCCCC)COC(=O)CCC(CCCCCC)OC(=O)NCCN1CCCC1 (stereo not drawn) [Compound 34, O7-[2,2-bis[(7-octoxy-7-oxo-heptanoyl)oxymethyl]-3-[4-(2-pyrrolidin-1-ylethylcarbamoyloxy)decanoyloxy]propyl]O1-octyl heptanedioate]
Organ Mean Total Flux Femur (Mouse 6, dose 0.5 mg/kg): 10.5 p/s (×10^6)
Organ Mean Total Flux Heart (Mouse 6, dose 0.5 mg/kg): 3.3 p/s (×10^6)
Organ Mean Total Flux Kidney (Mouse 6, dose 0.5 mg/kg): 6.7 p/s (×10^6)
Organ Mean Total Flux Liver (Mouse 6, dose 0.5 mg/kg): 1610 p/s (×10^6)
Organ Mean Total Flux Lung (Mouse 6, dose 0.5 mg/kg): 20.2 p/s (×10^6)
Organ Mean Total Flux Muscle (Mouse 6, dose 0.5 mg/kg): 28.3 p/s (×10^6)
Organ Mean Total Flux Pancreas (Mouse 6, dose 0.5 mg/kg): 12.8 p/s (×10^6)
Organ Mean Total Flux Spleen (Mouse 6, dose 0.5 mg/kg): 39.4 p/s (×10^6)

CCCCC/C=C\CCOC(=O)CCCCCC(=O)OCC(COC(=O)CCCCCC(=O)OCC/C=C\CCCCC)(COC(=O)CCCCCC(=O)OCC/C=C\CCCCC)COC(=O)CCC(CCCCCCCC)OC(=O)NCCN1CCCC1 (stereo not drawn) [Compound 28, O7-[2,2-bis[[7-[(Z)-non-3-enoxy]-7-oxo-heptanoyl]oxymethyl]-3-[4-(2-pyrrolidin-1-ylethylcarbamoyloxy)dodecanoyloxy]propyl]O1-[(Z)-non-3-enyl]heptanedioate]
Organ Mean Total Flux Femur (Mouse 6, dose 0.5 mg/kg): 3.5 p/s (×10^6)
Organ Mean Total Flux Heart (Mouse 6, dose 0.5 mg/kg): 0.5 p/s (×10^6)
Organ Mean Total Flux Kidney (Mouse 6, dose 0.5 mg/kg): 0.9 p/s (×10^6)
Organ Mean Total Flux Liver (Mouse 6, dose 0.5 mg/kg): 278.3 p/s (×10^6)
Organ Mean Total Flux Lung (Mouse 6, dose 0.5 mg/kg): 10.4 p/s (×10^6)
Organ Mean Total Flux Muscle (Mouse 6, dose 0.5 mg/kg): 11.6 p/s (×10^6)
Organ Mean Total Flux Pancreas (Mouse 6, dose 0.5 mg/kg): 0.8 p/s (×10^6)
Organ Mean Total Flux Spleen (Mouse 6, dose 0.5 mg/kg): 3.5 p/s (×10^6)

CCCCCCCCCC(C)OC(=O)CCCCCC(=O)OCC(COC(=O)CCCCCC(=O)OC(C)CCCCCCCCC)(COC(=O)CCCCCC(=O)OC(C)CCCCCCCCC)COC(=O)CCC(CCCCCC)OC(=O)NCCN1CCCC1 (stereo not drawn) [Compound 42, O1-[2,2-bis[[7-(1-methyldecoxy)-7-oxo-heptanoyl]oxymethyl]-3-[4-(2-pyrrolidin-1-ylethylcarbamoyloxy)decanoyloxy]propyl]O7-(1-methyldecyl) heptanedioate]
Organ Mean Total Flux Femur (Mouse 5, dose 0.5 mg/kg): 6.2 p/s (×10^6)
Organ Mean Total Flux Heart (Mouse 5, dose 0.5 mg/kg): 1.7 p/s (×10^6)
Organ Mean Total Flux Kidney (Mouse 5, dose 0.5 mg/kg): 1.9 p/s (×10^6)
Organ Mean Total Flux Liver (Mouse 5, dose 0.5 mg/kg): 1778 p/s (×10^6)
Organ Mean Total Flux Lung (Mouse 5, dose 0.5 mg/kg): 13.4 p/s (×10^6)
Organ Mean Total Flux Muscle (Mouse 5, dose 0.5 mg/kg): 25.8 p/s (×10^6)
Organ Mean Total Flux Pancreas (Mouse 5, dose 0.5 mg/kg): 1.8 p/s (×10^6)
Organ Mean Total Flux Spleen (Mouse 5, dose 0.5 mg/kg): 4.5 p/s (×10^6)
